Here are results for 22 molecules from patent publication US10906897B2, “Microbiocidal heterobicyclic derivatives” (priority 2015, dated 2021).

In data set [1] the test system is Botryotinia fuckeliana (Botrytis cinerea). In words: Botryotinia fuckeliana (Botrytis cinerea) / liquid culture (Gray mould). It is filed as cell-based. As to conditions: growth inhibition photometrically 3-4 days after application, compared to untreated control.
Data set [2] concerns Glomerella lagenarium (Colletotrichum lagenarium). In words: Glomerella lagenarium (Colletotrichum lagenarium) / liquid culture (Anthracnose). Type of data set: cell-based. The settings on record: Colletotrichum orbiculare, growth inhibition photometrically 3-4 days after application, compared to untreated control.
For data set [3], the system named is Gaeumannomyces graminis. In words: Gaeumannomyces graminis / liquid culture (Take-all of cereals). The settings on record: growth inhibition photometrically 4-5 days after application, compared to untreated control. Type of data set: cell-based.
Data set [4] concerns Monographella nivalis (Microdochium nivale). Put plainly: Monographella nivalis (Microdochium nivale) / liquid culture (foot rot cereals). Type of data set: cell-based. The settings on record: 96 h, growth inhibition photometrically 4-5 days after application, compared to untreated control.
The subject of data set [5] is Magnaporthe grisea (Pyricularia oryzae). Put plainly: microbe, parasite or virus in culture. It is filed as cell-based. The settings on record: read-out: control of Magnaporthe grisea.
Data set [6] relates to Fusarium culmorum. In words: microbe, parasite or virus in culture. The settings on record: read-out: control of Fusarium culmorum. It is filed as cell-based.
The test system of data set [7] is Magnaporthe grisea (Pyricularia oryzae). In words: whole plant or invertebrate. Type of data set: in vivo. As to conditions: foliar, read-out: control of Magnaporthe grisea.

With `CC1(C)N=C(c2cnc3c(C#N)cccn23)c2cccc(F)c2C1(C)C` [Compound E-38, 3-(5-fluoro-3,3,4,4-tetramethyl-1-isoquinolyl)imidazo[1,2-a]pyridine-8-carbonitrile], the inhibition of growth at 20 ppm in data set [1], in data set [2], in data set [3] and in data set [4] was at least 80% each time.
As usually defined, the melting point is the temperature, or range, at which the solid turns liquid. Turning to `COc1ccc2ncc(C3=NC(C)(C)C(C)(C)c4c(F)cccc43)n2c1` [Compound E-25, 5-fluoro-1-(6-methoxyimidazo[1,2-a]pyridin-3-yl)-3,3,4,4-tetramethyl-isoquinoline], the melting point was in the range of 214 to 215 °C. The inhibition of growth at 20 ppm in data set [3] is at least 80%.
`CC1(C)N=C(c2cnc3c(Cl)c(Cl)ccn23)c2ccccc2C1(F)F` [Compound E-56, 1-(7,8-dichloroimidazo[1,2-a]pyridin-3-yl)-4,4-difluoro-3,3-dimethyl-isoquinoline]: the melting point was over 210 °C. The inhibition of growth at 20 ppm in data set [1] is at least 80%. In addition, in data set [5], the inhibition of growth at 60 ppm is at least 80%.
On to `Cc1c(Br)ccc2c(C3=NC(C)(C)C(=O)c4ccccc43)cnn12` [Compound E-78, 1-(6-bromo-7-methyl-pyrazolo[1,5-a]pyridin-3-yl)-3,3-dimethyl-isoquinolin-4-one], for which the melting point was 166 to 168 °C. The molecule further displayed an inhibition of growth at 20 ppm in data set [1] of at least 80%. Also, the inhibition of growth at 20 ppm in data set [2] is at least 80%. Also, the inhibition of growth at 20 ppm in data set [6] was at least 80%. Moreover, the inhibition of growth at 20 ppm in data set [4] was at least 80%. Moreover, the inhibition of growth at 60 ppm in data set [5] is at least 80%.
Turning to `Cc1cccn2c(C3=NC(C)(C)C(C)(C)c4ccccc43)cnc12` [Compound E-33, 3,3,4,4-tetramethyl-1-(8-methylimidazo[1,2-a]pyridin-3-yl)isoquinoline], the inhibition of growth at 20 ppm in data set [1], in data set [2], in data set [6] and in data set [4] was at least 80% throughout. Further, the pest or weed control at 200 ppm in data set [7] was at least 50%.
Turning to `CC1(C)N=C(c2cnc3c(Br)cccn23)c2cccc(F)c2C1(C)C` [Compound E-8, 1-(8-bromoimidazo[1,2-a]pyridin-3-yl)-5-fluoro-3,3,4,4-tetramethyl-isoquinoline], the inhibition of growth at 20 ppm in data set [1], in data set [2] and in data set [6] was at least 80% throughout. Further, in data set [7], the pest or weed control at 200 ppm was at least 50%.
`CC1(C)N=C(c2cnn3ccccc23)c2cccc(F)c2C1(C)C` [Compound E-58, 5-fluoro-3,3,4,4-tetramethyl-1-pyrazolo[1,5-a]pyridin-3-yl-isoquinoline] yielded a melting point of 124 to 126 °C. The inhibition of growth at 20 ppm in data set [1] was at least 80%. The inhibition of growth at 20 ppm in data set [2] was at least 80%. In addition, in data set [3], the inhibition of growth at 20 ppm is at least 80%.
Turning to `CC1(C)N=C(c2cnc3ccccn23)c2cccc(F)c2C1(C)C` [Compound E-1, 5-fluoro-1-imidazo[1,2-a]pyridin-3-yl-3,3,4,4-tetramethyl-isoquinoline], the melting point lay in the range of 129 to 130 °C. For the same molecule, in data set [1], the inhibition of growth at 20 ppm is at least 80%. Further, the inhibition of growth at 20 ppm in data set [2] is at least 80%. For the same molecule, the inhibition of growth at 20 ppm in data set [6] was at least 80%. Also, the inhibition of growth at 20 ppm in data set [3] is at least 80%.
In turn, `CC1(C)N=C(c2cnc3c(C(F)(F)F)cccn23)c2cccc(F)c2C1(C)C` [Compound E-29, 5-fluoro-3,3,4,4-tetramethyl-1-[8-(trifluoromethyl)imidazo [1,2-a]pyridin-3-yl]isoquinoline] returned a melting point of 141 to 142 °C. Further, in data set [1], the inhibition of growth at 20 ppm is at least 80%. This molecule gave an inhibition of growth at 20 ppm in data set [2] of at least 80%. Moreover, in data set [4], the inhibition of growth at 20 ppm is at least 80%.
In turn, `Cc1ccc2c(C3=NC(C)(C)C(=O)c4cc(F)ccc43)cnn2c1C` [Compound E-74, 1-(6,7-dimethylpyrazolo[1,5-a]pyridin-3-yl)-6-fluoro-3,3-dimethyl-isoquinolin-4-one] gave a melting point of 168 to 170 °C. In data set [1], this molecule showed an inhibition of growth at 20 ppm of at least 80%. The same molecule had an inhibition of growth at 20 ppm in data set [2] of at least 80%. For the same molecule, in data set [6], the inhibition of growth at 20 ppm was at least 80%. Besides, the inhibition of growth at 60 ppm in data set [5] is at least 80%.
Molecule `Cc1cccc2c(C3=NC(C)(C)C(C)(C)c4c(F)cccc43)cnn12` [Compound E-59, 5-fluoro-3,3,4,4-tetramethyl-1-(7-methylpyrazolo[1,5-a]pyridin-3-yl)isoquinoline] showed a melting point of 134 to 136 °C. In data set [1], this molecule showed an inhibition of growth at 20 ppm of at least 80%. Moreover, in data set [2], the inhibition of growth at 20 ppm is at least 80%. In addition, the inhibition of growth at 20 ppm in data set [6] was at least 80%. The inhibition of growth at 20 ppm in data set [4] is at least 80%. Further, the pest or weed control at 200 ppm in data set [7] is at least 50%.
As for `Cc1ccn2c(C3=NC(C)(C)C(C)(C)c4c(F)cccc43)cnc2c1` [Compound E-31, 5-fluoro-3,3,4,4-tetramethyl-1-(7-methylimidazo[1,2-a]pyridin-3-yl)isoquinoline], the inhibition of growth at 20 ppm in data set [1], in data set [2] and in data set [6] was at least 80% in each case. Further, the pest or weed control at 200 ppm in data set [7] is at least 50%.
Consider `Cc1cccn2c(C3=NC(C)(C)C(F)(F)c4ccccc43)cnc12` [Compound E-45, 4,4-difluoro-3,3-dimethyl-1-(8-methylimidazo[1,2-a]pyridin-3-yl)isoquinoline], for which the inhibition of growth at 20 ppm in data set [1], in data set [2], in data set [6] and in data set [4] was at least 80% throughout. Besides, the pest or weed control at 200 ppm in data set [7] is at least 50%.
`C#Cc1ccc2c(C3=NC(C)(C)C(F)(F)c4ccccc43)cnn2c1` [Compound E-90, 1-(6-ethynylpyrazolo[1,5-a]pyridin-3-yl)-4,4-difluoro-3,3-dimethyl-isoquinoline]: the melting point was 145 to 147 °C. The same molecule had an inhibition of growth at 20 ppm in data set [2] of at least 80%. The inhibition of growth at 20 ppm in data set [3] is at least 80%. In data set [4], this molecule gave an inhibition of growth at 20 ppm of at least 80%. Also, the inhibition of growth at 60 ppm in data set [5] was at least 80%.
Take `CCc1cccn2c(C3=NC(C)(C)C(C)(C)c4c(F)cccc43)cnc12` [Compound E-21, 1-(8-ethylimidazo[1,2-a]pyridin-3-yl)-5-fluoro-3,3,4,4-tetramethyl-isoquinoline]: the inhibition of growth at 20 ppm in data set [1], in data set [2], in data set [6] and in data set [4] was at least 80% each time.
`CC1(C)N=C(c2cnn3cc(C#N)ccc23)c2ccccc2C1(F)F` [Compound E-85, 3-(4,4-difluoro-3,3-dimethyl-1-isoquinolyl)pyrazolo[1,5-a]pyridine-6-carbonitrile] yielded a melting point of 191 to 194 °C. In data set [1], this molecule displayed an inhibition of growth at 20 ppm of at least 80%. In addition, the inhibition of growth at 60 ppm in data set [5] is at least 80%.
Molecule `CC1(C)N=C(c2cnc3c(F)cccn23)c2cccc(F)c2C1(C)C` [Compound E-6, 5-fluoro-1-(8-fluoroimidazo[1,2-a]pyridin-3-yl)-3,3,4,4-tetramethyl-isoquinoline] yielded a melting point of 156 to 157 °C. The molecule also gave an inhibition of growth at 20 ppm in data set [1] of at least 80%. The same molecule returned an inhibition of growth at 20 ppm in data set [2] of at least 80%. Also, in data set [6], the inhibition of growth at 20 ppm is at least 80%. The molecule also returned an inhibition of growth at 20 ppm in data set [3] of at least 80%. The molecule further registered an inhibition of growth at 20 ppm in data set [4] of at least 80%. The pest or weed control at 200 ppm in data set [7] is at least 50%.
For `CC1(C)Cc2ccccc2C(c2cnc3c(Br)cccn23)=N1` [Compound E-41, 1-(8-bromoimidazo[1,2-a]pyridin-3-yl)-3,3-dimethyl-4H-isoquinoline], the melting point lay in the range of 132 to 133 °C. For the same molecule, in data set [3], the inhibition of growth at 20 ppm was at least 80%.
Turning to `Cc1cccn2c(C3=NC(C)(C)C(C)(C)c4c(F)cccc43)cnc12` [Compound E-9, 5-fluoro-3,3,4,4-tetramethyl-1-(8-methylimidazo[1,2-a]pyridin-3-yl)isoquinoline], the melting point lay in the range of 160 to 161 °C. The molecule also gave an inhibition of growth at 20 ppm in data set [1] of at least 80%. In data set [2], this molecule gave an inhibition of growth at 20 ppm of at least 80%. Also, the inhibition of growth at 20 ppm in data set [6] is at least 80%. The inhibition of growth at 20 ppm in data set [3] is at least 80%. Further, the inhibition of growth at 20 ppm in data set [4] is at least 80%. Further, in data set [7], the pest or weed control at 200 ppm was at least 50%.
The molecule `Cc1cccn2c(C3=NCC4(CCC4)c4ccccc43)cnc12` [Compound E-53, 1-(8-methylimidazo[1,2-a]pyridin-3-yl)spiro[3H-isoquinoline-4,1′-cyclobutane]] came in with a melting point of 127 to 129 °C. Further, the inhibition of growth at 20 ppm in data set [1] is at least 80%. This molecule also returned an inhibition of growth at 20 ppm in data set [4] of at least 80%. The inhibition of growth at 60 ppm in data set [5] was at least 80%.
Consider `Cc1cccn2ncc(C3=NC4(CC4)C4(CC4)c4ccccc43)c12` [Compound E-95], for which the inhibition of growth at 20 ppm in data set [1] and in data set [2] was at least 80% each time. Moreover, the pest or weed control at 200 ppm in data set [7] was at least 50%. Further, the inhibition of growth at 60 ppm in data set [5] is at least 80%.
`CC1(C)N=C(c2cnc3c(Br)cccn23)c2cccc(F)c2C1(F)F` [Compound E-37, 1-(8-bromoimidazo[1,2-a]pyridin-3-yl)-4,4,5-trifluoro-3,3-dimethyl-isoquinoline]: the inhibition of growth at 20 ppm in data set [2] and in data set [3] was at least 80% each time.
